Patent US20140024582A1, “STABLE INSULIN FORMULATIONS AND METHODS OF MAKING AND USING THEREOF” (Genecopoeia, Inc., priority 2010, published 2014)
Read-outs that look alike come from different tables or passages of the source.

Columns and labels:
Type in all cases: physicochemical
[1] = Visual precipitation of insulin solutions stored at room temperature in the dark
Protocol: Insulin was dissolved in 0.10 N hydrochloric acid (5 μL per milligram of insulin) and made into a series of solutions at its concentration of 4.0 mg/ml with various additives, and the pH was adjusted to pH 7.4 using 0.05 N sodium hydroxide. Samples were kept at room temperature (25° C.) in the dark.
Zinc-free recombinant human insulin (16 mg) was dissolved in 0.10 N hydrochloric acid (70 microliters), and to this insulin was added 6.0 ml of the above proline solution. This stock solution was further made into a series of solutions at its concentration of 2.0 mg/ml with various additives at pH 7.4. Samples were kept at room temperature (25° C.) in the dark.
After six months, there were no precipitates visible at the bottom, and the solutions were all visually clear. As shown in Example 1 above, insulin without proline forms precipitates in a few days.
Repeat preparation as in Example 2 at proline concentration of 1.0 M, 1.5 M, 2.4 M and 7.0 M, without glycerol and m-cresol. All samples were stored at room temperature in the dark over six month to find no visible insulin precipitate.

[2] = Covalent insulin dimers quantified by SEC HPLC during storage; settings: zinc-free insulin and zinc-insulin with EDTA, Example 4
Protocol: A group of stock solutions were prepared: proline (6.25 M) in water, EDTA (0.10 M, pH 7.4), glycerol(320 mg/ml) containing m-Cresol (25 mg/ml) in water, sodium insulin(10 mg/ml) in phosphate buffer (25 mM, pH 7.4). Eight formulations were prepared using those stock solutions as in the table below.
All the eight formulations were kept at room temperature in the dark. At times, aliquots were withdrawn for HPLC analysis (Injection volume: 0.10 ml).
During the storage, covalent insulin dimers were quantified by SEC HPLC, and the results are summarized below.
Column: Protein Pak, 125 Å, Waters, WAT084601
Mobile Phase: 20% Acetonitrile, 15% acetic acid, 65% water

[3] = Total degradation products of porcine insulin formulations by C18 reverse-phase HPLC
Protocol: Six test formulations were prepared at proline concentrations of 0, 1.6 M and 2.8 M with acetone concentrations at 0 and 3 mg/ml, as listed in the following table. Those test formulations were stored at room temperature in the dark. At times, aliquots were withdrawn to be analyzed on C18 reverse-phase HPLC to measure total degradation products, as summarized in the table below.

O=C(O)[C@@H]1CCCN1 [proline]
Effect of proline on precipitation of monomeric insulin ([1]; proline 2.4 M, Example 2): ability to deter monomeric insulin from precipitation | Effect on formation of high molecular weight insulin degradation side products [2]: reduces formation of high molecular weight insulin degradation side products | Effect on total amount of degradation side products [3]: reduces total amount of degradation side products

CC(C)=O [acetone]
Effect on total amount of degradation side products ([3]; porcine insulin, period of 8 weeks, Example 5): further enhances the stabilizing effect of proline

N=C(N)NCCC[C@H](N)C(=O)O [arginine]
Effect of arginine on precipitation of monomeric insulin ([1]; arginine at 0.5 M, Example 1): has ability to deter monomeric insulin from precipitation
